Reference: US10954200B1, “Anti-angiogenesis compound” (KING SAUD UNIVERSITY, priority 2019, dated 2021)

Legend:
caspase-3 = assay: Caspase-3 colorimetric assay; assay type: cell-based, human
Description: Using CPP32/Caspase-3 Colorimetric Assay Kit, the activated caspase was estimated as per manufacturer's protocol. The buffers used in the experiment were those supplied along with the kit. A549 cells (8×10^5 per 12.5 cm^2 culture flasks) were seeded with their respective growth medium and incubated for 24 h at 37° C. with/without 5% CO2. Then, confluent cells were added with the respective drug medium while maintaining an untreated group as a control. Cultures were incubated for 6 h, maintaining the same conditions, 0.1 mM Hydrogen Peroxide (H2O2) and 10 μM standard drug were used as positive control for activation of caspase-3. After treatment incubation, the detached cells in the supernatant were collected, and the adherent cells were trypsinized to add into the respective tubes. Subsequently, tubes were centrifuged at 1500 rpm for 10 min to acquire a cell pellet. […] The […] was transferred to fresh tubes and the protein concentrations of samples were determined by employing Bradford assay. […] Post-incubation, the plate was read at 405 nm in a Dynex Opsys MRTM Microplate Reader (Dynex Technologies, VA, USA). Percentage caspase-3 activation was calculated using the following formula: % Caspase-3 activation=[(At−Ac)/Ac]×100
“At” represents the mean absorbance of test wells and “Ac” represents the mean absorbance of the control wells.

MCF-7 cells [1] = assay: Trypan blue dye exclusion assay, MCF-7; assay type: cell-based; details: Homo sapiens, MCF7; MCF-7, 48 h; read-out: IC50 value (μM) against MCF-7 cells, Trypan blue assay
Description: (§1) Breast cancer cells (MCF-7), lung cancer cells (A549), Hela cells, and peripheral blood mononuclear cells (PBMC) were purchased from the National Center for Cell Sciences (NCCS), Pune, India. The cancer cells were maintained in Dulbecco's modified eagles medium (DMEM), supplemented with 2 mM 1-glutamine and balanced salt solution (BSS), adjusted to contain 1.5 g/L Na2CO3, 0.1 mM nonessential amino acids, 1 mM sodium pyruvate, 2 mM 1-glutamine, 1.5 g/L glucose, 10 mM (4-(2-hydroxyethyl)-1-piperazineethane sulfonic acid) (HEPES), and 10% fetal bovine serum (GIBCO, USA). Penicillin and streptomycin (100 IU/100 μg) were adjusted to 1 mL/L. The cells were maintained at 37° C. with 5% CO2 in a humidified CO2 incubator.
(§2) The cytotoxic effects of synthesized compounds on various types of cancer cells were determined by trypan blue dye exclusion assay. The cultured cells were treated with the synthesized compounds and incubated for 48 h. After the incubation period, the cells were detached by 0.5% trypan-EDTA solution, harvested by centrifugation at 3000 rpm for 5 minutes and diluted in 1 ml of PBS. […] About 20 μl of cell suspensions were carefully and continuously filled in the haemocytometer chamber and viable cells were counted in 1×1 mm squares, four chambers and the average number of cells per square determined. Total viable cells were determined using the following formula, […]

MCF-7 cells [2] = assay: MTT cell viability assay, MCF-7; assay type: cell-based; details: Homo sapiens, MCF7; MCF-7, 48 h; read-out: IC50 value (μM) against MCF-7 cells, MTT assay
Description: as §1
(§3) The inhibitory concentration (IC50) value was evaluated using an MTT [3-(4,5-dimethylthiazol-2-yl)-2,5-diphenyltetrazolium bromide] assay. Cancer cells were grown (1×10^4 cells/well) in a 96-well plate for 48 h to 75% confluence. The medium was replaced with fresh medium containing serially diluted synthesized compounds, and the cells were further incubated for 48 h. The culture medium was removed, and 100 μL of the MTT [3-(4,5-dimethylthiozol-2-yl)-3,5-diphenyl tetrazolium bromide] (Hi-Media, Mumbai, India) solution was added to each well and incubated at 37° C. for 4 h. […] The optical density was measured at 620 nm in an ELISA multiwell plate reader (Thermo Multiskan EX, USA). […]

Hela cells [3] = assay: Trypan blue dye exclusion assay, Hela; assay type: cell-based; details: Homo sapiens, 48 h, read-out: IC50 value (μM) against Hela cells, Trypan blue assay
Description: as §1, §2

Hela cells [4] = assay: MTT cell viability assay, Hela; assay type: cell-based; details: Homo sapiens, 48 h, read-out: IC50 value (μM) against Hela cells, MTT assay
Description: as §1, §3

A549 cells [5] = assay: Trypan blue dye exclusion assay, A549; assay type: cell-based; details: Homo sapiens, A549, 48 h; read-out: IC50 value (μM) against A549 cells, Trypan blue assay
Description: as §1, §2

A549 cells [6] = assay: MTT cell viability assay, A549; assay type: cell-based; details: Homo sapiens, A549, 48 h; read-out: IC50 value (μM) against A549 cells, MTT assay
Description: as §1, §3

EAC cells [7] = assay: Trypan blue dye exclusion assay, EAC; assay type: cell-based, mouse; details: 48 h, read-out: IC50 value (μM) against EAC cells, Trypan blue assay
Description: The cytotoxic effects of synthesized compounds on various types of cancer cells were determined by trypan blue dye exclusion assay. The cultured cells were treated with the synthesized compounds and incubated for 48 h. After the incubation period, the cells were detached by 0.5% trypan-EDTA solution, harvested by centrifugation at 3000 rpm for 5 minutes and diluted in 1 ml of PBS. Then, 10 μl of trypan blue dye solution was added to each sample and cells were re-suspended. About 20 μl of cell suspensions were carefully and continuously filled in the haemocytometer chamber and viable cells were counted in 1×1 mm squares, four chambers and the average number of cells per square determined. Total viable cells were determined using the following formula,
The values were plotted in MS excel version 8.1, graphed and the inhibitory concentration-50 (IC50) values were estimated.

EAC cells [8] = assay: MTT cell viability assay, EAC; assay type: cell-based, mouse; details: 48 h, read-out: IC50 value (μM) against EAC cells, MTT assay
Description: (§4) The inhibitory concentration (IC50) value was evaluated using an MTT [3-(4,5-dimethylthiazol-2-yl)-2,5-diphenyltetrazolium bromide] assay. Cancer cells were grown (1×10^4 cells/well) in a 96-well plate for 48 h to 75% confluence. The medium was replaced with fresh medium containing serially diluted synthesized compounds, and the cells were further incubated for 48 h. The culture medium was removed, and 100 μL of the MTT [3-(4,5-dimethylthiozol-2-yl)-3,5-diphenyl tetrazolium bromide] (Hi-Media, Mumbai, India) solution was added to each well and incubated at 37° C. for 4 h. After removal of the supernatant, 50 μL of DMSO was added to each of the wells and incubated for 10 min to solubilize the formazan crystals. The optical density was measured at 620 nm in an ELISA multiwell plate reader (Thermo Multiskan EX, USA). The OD value was used to calculate the percentage of viability using the following formula.

PBMC cells [9] = assay: Trypan blue dye exclusion assay, PBMC; assay type: cell-based, human; details: 48 h, read-out: IC50 value (μM) against PBMC cells, Trypan blue assay
Description: as §1, §2

PBMC cells [10] = assay: MTT cell viability assay, PBMC; assay type: cell-based, human; details: 48 h, read-out: IC50 value (μM) against PBMC cells, MTT assay
Description: as §1, §3

cancer cells = assay: MTT and trypan blue assays, overall IC50; assay type: cell-based; details: read-out: anti-angiogenesis effect, IC50 values
Description: as §4
The cytotoxic effects of synthesized compounds on various types of cancer cells were determined by trypan blue dye exclusion assay. […] About 20 μl of cell suspensions were carefully and continuously filled in the haemocytometer chamber and viable cells were counted in 1×1 mm squares, four chambers and the average number of cells per square determined. Total viable cells were determined using the following formula, […]

NIH-3T3 cells = assay: Toxicity to NIH-3T3 cells; assay type: cell-based
MCF-7 cells [11] = assay: Colony formation assay; assay type: cell-based, human; details: 5, 10, 20 μM, 6 hours pretreatment, 12 days
Description: Long-term effects of the active compound were determined by colony formation with minor modifications. […] Surviving colonies were fixed and stained by using 0.5% crystal violet. Visible colonies were observed and colonies were counted and photographed.

[12] = system: genomic DNA of cancer cells; assay: DNA fragmentation assay (apoptotic ladder); assay type: cell-based; details: treated vs untreated cells
Description: DNA damaging studies were carried out according to previously described methods. The DNA damaging activity of the compound on genomic DNA of both control and treated cells were evaluated by Phenol:Chloroform method. Briefly, the cells were first lysed using lysis buffer (50 mM Tris-Hcl, 0.5% SDS, pH 8.0) and incubated for 30 minutes at […]. The cell lysate was precipitated by using potassium acetate (8M) and incubated at 4° C. for 1 hr. The supernatant was mixed with phenol:Chloroform:isoamylalcohol at 25:24:1 ratio. This step was repeated thrice. DNA was precipitated by adding ice cold alcohol and precipitated DNA was air dried and dissolved by using appropriate amounts of TE Buffer (pH 8.0). Precipitated DNA was subjected to RNase digestion (2 μg/mL) for 1 hr at 37° C. The obtained DNA was quantified by using nanodrop (Eppendrof Ag 22331 Hamburg 6135EM402331) and equal amounts of (50 μg) of DNA were loaded to 1% agarose gel, observed under uv-trans illuminator, and documented.

A549 cells [13] = assay: Cancer cell migration (scratch wound) assay; assay type: cell-based; details: Homo sapiens, 48 h
Description: The A549 cells were cultured in a six well plate until they reached a confluence of 60-70%. A scratch was made to form a wound using a micropipette tip and the monolayer was washed with growth medium. Then, 2 ml medium containing different concentrations of test drugs was added to the respective wells, incubated for 48 h, fixed with chilled 70% ethanol and stained with crystal violet (0.4 g/l). Images were taken from random fields at regular time intervals using an inverted microscope (Bresser, Biolux). Finally, the percentage of cell migration was calculated by comparing the final gap width to initial gap width.

EAC tumor = assay: In vivo EAC ascites tumor growth; details: for decrease of tumor volume, % of inhibition: three doses on alternate days
Description: The EAC tumor was obtained from Mahajana Education Center, BOC, in Biotechnology. Microbiology& Biochemistry Mahajana College, Mysore University, Mysore, Karnataka, India, and the same was induced into adult Swiss albino mice i.p and left for the growth.
The EAC tumor bearing mice (donor) were taken on the 12th day after tumor transplantation and the ascites fluid was drawn using an 18 gauge needle into a sterile syringe. Then the tumor cell viability was tested by trypan blue exclusion assay and the cells were counted using a haemocytometer. The ascites fluid was suitably diluted to get a concentration of 5×10^6/0.2 ml of tumor cell suspension. This was injected into the i.p cavity of Swiss mice to obtain ascites tumor and the process was repeated every 12 days.
Ascites tumor was obtained by injecting 5×10^6 viable tumor cells into i.p cavity of Swiss mice. Tumor growth was followed by recording the animal weights. These cells grew in the peritoneum of mice, forming an ascites tumor with enormous abdominal swelling and showing a profound increase in body weight. The EAC cells began their exponential growth phase from the 7th day after tumor cell injection and the animals succumbed to the ascites tumor burden between 16 to 20 days after injection of tumor cells.
(§5) The effect of potent synthesized compound BAMC on the modulation of neovessel and tumor growth was verified in EAC bearing animals. The EAC tumor bearing mice were grouped separately at two different concentrations (25 and 50 mg/Kg, b.w/i.p) of potent synthesized compounds and individually the groups were treated using a 26 gauge needle. Then, after the onset of tumor on the 4th day, three doses were given on every alternative day. The growth of the tumor was monitored by taking the body weight of the animals every day. Then, control animals were injected with 0.2 ml of saline (i.p) on every alternative day. In each treatment, at least six mice were taken and each experiment was repeated thrice. After the completion of treatment, the animals from each group were sacrificed on the 10th day and the EAC cells along with ascites fluid were harvested and the quantity was recorded. The peritoneum of the mice was cut open and the inner lining of the peritoneal cavity was examined for angiogenesis (vasculature) in compound-treated, tumor bearing mice. Finally, the inner lining of normal mice was also examined for vasculature and photographed using Sony steady shot DSC-W610 camera. These sets of animals were used to study the survivability analysis after treatment until their death.

[14] = system: EAC induced angiogenesis in peritoneum; assay: Peritoneal angiogenesis assay; assay type: in vivo, Swiss albino mice
Description: as §5

Question: `OO` [H2O2, Hydrogen Peroxide, reference compound] was tested. Which “percentage of caspase-3 activation” value (caspase-3; MCF-7, 0.1 mM, positive control) did it give?
Answer: The value was 91.1%.

Question: What does the source list for `Cc1ccccc1OCC(=O)NNC(=O)C1CN(Cc2ccccc2)CCO1` (centres unmarked) [BAMC, 4-Benzyl-N′-(2-(o-tolyloxy)acetyl) morpholine-2-carbohydrazide]?
Answer: IC50 (MCF-7 cells [1]): 4.6 ± 1.1 µM; IC50 (MCF-7 cells [2]): 4.5 ± 2 µM; IC50 (Hela cells [3]): 5.2 ± 1.3 µM; IC50 (Hela cells [4]): 4.9 ± 0.2 µM; IC50 (A549 cells [5]): 5.8 ± 0.7 µM; IC50 (A549 cells [6]): 5.6 ± 1 µM; IC50 (EAC cells [7]; Mus musculus): 6.8 ± 1.4 µM; IC50 (EAC cells [8]; Mus musculus): 6.7 ± 1.8 µM; IC50 (PBMC cells [9]; Homo sapiens): 85.7 ± 0.7 µM; IC50 (PBMC cells [10]; Homo sapiens): 89.9 ± 3.5 µM; IC50 (cancer cells): ~5.5 µM; toxicity to NIH-3T3 cells (NIH-3T3 cells): ~97 µM; colony formation (colonogenic efficiency) (MCF-7 cells [11]): visibly diminished the colonogenic efficiency of MCF-7 cells; DNA fragmentation (apoptotic ladder), agarose gel [12]: typical “ladder (A)” formation of DNA; inhibition at 10 µM (A549 cells [13]; A549, 10 μM): 13%; inhibition at 20 µM (A549 cells [13]; A549, 20 μM): 72.3%; percentage of caspase-3 activation (caspase-3; MCF-7, BAMC concentration not stated): 84.5%; decrease of tumor volume, % of inhibition (EAC tumor; EAC mice, 25 mg/kg bw i.p.): 74.35%; decrease of tumor volume, % of inhibition (EAC tumor; EAC mice, 50 mg/kg bw i.p.): 80.2%; adverse effect on normal lymphoid organs (morphology of kidney, liver, spleen) (EAC tumor; EAC mice, 25 and 50 mg/kg): did not show any symptoms of adverse effect; cell density reduction (EAC tumor; EAC mice, 25 and 50 mg/kg, concentration dependent): six fold reduction; body weight of tumor bearing mice (EAC tumor; EAT bearing mice, treated vs control): significant decrease in body weight; regression of EAC induced angiogenesis in peritoneum ([14]; first value of 'respectively' (25 mg/kg)): 40%; regression of EAC induced angiogenesis in peritoneum ([14]; second value of 'respectively' (50 mg/kg)): 15%

Question: For `N.N.[Cl][Pt][Cl]` [Cisplatin, reference compound], which IC50 (EAC cells [7]) is on record?
Answer: The IC50 was 4.4 ± 1.3 µM.

Question: And the IC50 (EAC cells [8])?
Answer: The IC50 was 4.9 ± 1.1 µM.

Question: What about the IC50 (PBMC cells [9]) of the same molecule?
Answer: Its IC50 is 96.1 ± 0.8 µM.

Question: What about the IC50 (PBMC cells [10]) of the same molecule?
Answer: Its IC50 is 91.4 ± 1.1 µM.
